What all share (test): growth of human tumour cells (NCI), 48 h
Test [1] has as its system COLO 205 colon.
Test [2] relates to HCC-2998 colon.
Test [3] relates to MOLT-4 leukemia.
Test [4] deals with NCI-H460 lung.
For test [5], the system named is OVCAR-4 ovarian.
Test [6] concerns SNB-19 CNS.
The subject of test [7] is SW-620 colon.
For test [8], the system named is UACC-62 melanoma.

Structures are written as SMILES. Several values for one entry are separate records, joined by “and”; a condition that tells them apart may be missing. Equal entries are not always repeated.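 Values below derive from 48-hour exposures of cells grown in 96-well plates, with endpoints linearly interpolated between the two concentrations bracketing the appropriate inhibition level. Here, GI50 denotes the concentration required for 50% inhibition of growth. Definition used: TGI = concentration required for complete inhibition of growth.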 Bounds are passed on as bounds.

Regarding `O=C1/C(=C/c2cccc([N+](=O)[O-])c2)COc2ccc(O)cc21`, the GI50 in test [1] was 1.58 µM; in test [2], 1.75 µM; in test [3] it was 2.05 µM; in test [4] it was 2.69 µM; in test [5], 3.3 µM; in test [6], 1.96 µM. Further, the GI50 in test [7] was 0.521 µM; in test [8], 1.92 µM. Besides, the TGI was determined as 3.27 µM in test [1]; 3.21 µM in test [2]; 5.83 µM in test [3]; 6.65 µM in test [4]; 11.1 µM in test [5]; 3.97 µM in test [6]. Also, the TGI in test [7] was 2.08 µM; in test [8], 4.03 µM.
`NC(=O)c1sc(-n2cnc3ccccc32)cc1OCc1ccccc1Br`: the GI50 in test [1] is 1.58 µM; in test [2], 6.38 µM; in test [3], 3.56 µM; in test [4], 2.36 µM; in test [5], more than 25 µM; in test [6], 11.6 µM. Also, the GI50 is 1.17 µM in test [7] and 5.88 µM in test [8]. Also, the TGI was 23.2 µM in test [1]; more than 25 µM in test [2]; more than 25 µM in test [3]; more than 25 µM in test [4]; more than 25 µM in test [5]; more than 25 µM in test [6]. The TGI in test [7] and in test [8] was more than 25 µM throughout.
Take `Cc1coc2c1CC1(C)C(CCC(O)C1C)C2` (centres undefined): the TGI in test [1], in test [2], in test [3], in test [4], in test [5] and in test [6] was more than 100 µM in each case. The TGI in test [7] and in test [8] was more than 100 µM throughout.
`O=C(Nc1ccccc1)NS(=O)(=O)c1ccc(-n2nc3c(c2-c2cccs2)Cc2ccccc2-3)cc1`: the GI50 is 44 µM in test [1]; 15.3 µM in test [2]; 15.5 µM in test [3]; 18.9 µM in test [4]; 34.9 µM in test [5]; more than 100 µM in test [6]. In addition, the GI50 in test [7] was 22.9 µM; in test [8], 15.8 µM. Further, the TGI in test [1] is more than 100 µM; in test [2], 31.8 µM; in test [3] it was more than 100 µM; in test [4], more than 100 µM; in test [5] it was more than 100 µM; in test [6], more than 100 µM. Also, the TGI in test [7] turned out to be 51.2 µM; in test [8] it was 35 µM.
On to `O=S(=O)(NC1=NCCN1C(=S)SN1CCn2c1nsc2=S)c1ccc(OC(F)(F)F)cc1`, for which the GI50 in test [1] was 10.7 µM; in test [2] it was 12.7 µM; in test [3], 2.04 µM; in test [4] it was 13.1 µM; in test [5], 14.6 µM; in test [6], 16.8 µM. Further, the GI50 in test [7] is 9.62 µM; in test [8], 11.6 µM. Besides, the TGI was determined as 28.2 µM in test [1]; 26.1 µM in test [2]; 7.39 µM in test [3]; 48.5 µM in test [4]; 31.6 µM in test [5]; 32.1 µM in test [6]. The TGI in test [7] turned out to be 24.3 µM; in test [8], 24.4 µM.
Regarding `COc1ccc(C(=O)Cn2c(C(=O)c3ccccc3)nc(-c3ccc(OC)cc3)c2-c2ccc(OC)cc2)cc1`, the GI50 in test [1], in test [2], in test [3], in test [4], in test [5] and in test [6] was more than 100 µM each time. In addition, the GI50 was more than 100 µM in test [7] and 98.3 µM in test [8]. Moreover, the TGI in test [1], in test [2], in test [3], in test [4], in test [5] and in test [6] was more than 100 µM in each case. Further, the TGI in test [7] and in test [8] was more than 100 µM each time.
Take `c1ccc2cc(-c3cc(-c4cc(-c5ccc6ccccc6c5)on4)no3)ccc2c1`: the TGI in test [1], in test [2], in test [3], in test [4], in test [5] and in test [6] was more than 100 µM throughout. Also, the TGI in test [7] and in test [8] was more than 100 µM throughout.
For the compound `CC[C@@]1(O)C[C@H](OC2CC(N(C)C)C(O)C(C)O2)c2c(O)c3c(c(O)c2[C@H]1OC1CC(N(C)C)C(O)C(C)O1)C(=O)c1cccc(O)c1C3=O` (some centres undefined), the GI50 in test [1], in test [2], in test [3], in test [4], in test [5] and in test [6] was less than 0.01 µM each time. Besides, the GI50 in test [7] and in test [8] was less than 0.01 µM in each case. Further, the TGI in test [1] was 0.149 µM and 0.0297 µM; in test [2] it was 0.0759 µM and 0.0216 µM; in test [3], 0.0573 µM; in test [4], 0.304 µM and 0.662 µM; in test [5], 0.601 µM and 0.147 µM; in test [6], 11.1 µM. Besides, the TGI in test [7] was 0.0149 µM; in test [8] it was 0.0711 µM and < 0.01 µM.
On to `COc1ccc(-c2nc3sccn3c2/C(N)=N/C(=N)N)cc1OC`, for which the GI50 is 56.6 µM in test [1]; 43.1 µM in test [2]; 27.6 µM in test [3]; 46.7 µM in test [4]; more than 100 µM in test [5]; 35.3 µM in test [6]. Further, the GI50 in test [7] was 28.4 µM; in test [8], 66 µM. The TGI in test [1], in test [2], in test [3], in test [4], in test [5] and in test [6] was more than 100 µM throughout. The TGI was 72.1 µM in test [7] and more than 100 µM in test [8].
Regarding `COC1CCC(N2C(=O)CNc3ncc(-c4ccc(C(C)(C)O)nc4)nc32)CC1` (centres undefined), the GI50 in test [1] was 1.03 µM and 0.176 µM; in test [2], 1.98 µM and 0.306 µM; in test [3], 1.51 µM and 0.437 µM; in test [4] it was 0.455 µM and 0.113 µM; in test [5], 0.568 µM and 0.12 µM; in test [6], 2.02 µM and 1.57 µM. Further, the GI50 in test [7] was 1.78 µM and 0.935 µM; in test [8] it was 0.237 µM and 0.111 µM. The TGI in test [1] is > 8.63 µM and 9.06 µM; in test [2] it was more than 39.2 µM; in test [3] it was more than 100 µM; in test [4], more than 46 µM; in test [5] it was > 7.88 µM and 1.07 µM; in test [6], more than 36.2 µM. The TGI in test [7] is more than 37.5 µM; in test [8] it was 2.08 µM and 1.26 µM.

The values are drawn from PubChem BioAssay (NCI).
